In PMC9032718, “Eltrombopag as an Allosteric Inhibitor of the METTL3-14 Complex Affecting the m^6A Methylation of RNA in Acute Myeloid Leukemia Cells” (Pharmaceuticals, 2022):

What was measured:
MOLM-13 cells = experiment: Anti-proliferative assay (EZ-cytox), MOLM-13; format: cell-based; conditions: Homo sapiens, MOLM-13, 72 h
Procedure: The MOLM-13, MOLM-14, HL60, MV4-11, and THP-1 cells were seeded in white 96-well clear bottomed plates with 100 μL of medium (5000 cells/well). The plated cells were treated with serially diluted compounds and incubated for 72 h at 37 °C. After incubation, 10 μL of EZ-cytox kit reagent from the EZ-cytox cell viability assay kit (DaeiLab, Seoul, Korea) was added to each well and then incubated for 3 h at 37 °C. The absorbance of metabolically active cells was measured at a wavelength of 450 nm using a Victor multilabel reader (PerkinElmer). The GI50 values were calculated by nonlinear regression analysis using OriginPro 9.1 software (OriginLab).

SMYD3 = biological target: T1, SMYD3 (Homo sapiens, UniProt Q9H7B4); experiment: Methyltransferase selectivity panel (MT HotSpot radioisotope assay), SMYD3; format: biochemical; conditions: 10 μM eltrombopag, SMYD3
T1 construct: purchased Reaction Biology (Malvern, PA, USA), contract assay
T1 sequence (Q9H7B4 1-428): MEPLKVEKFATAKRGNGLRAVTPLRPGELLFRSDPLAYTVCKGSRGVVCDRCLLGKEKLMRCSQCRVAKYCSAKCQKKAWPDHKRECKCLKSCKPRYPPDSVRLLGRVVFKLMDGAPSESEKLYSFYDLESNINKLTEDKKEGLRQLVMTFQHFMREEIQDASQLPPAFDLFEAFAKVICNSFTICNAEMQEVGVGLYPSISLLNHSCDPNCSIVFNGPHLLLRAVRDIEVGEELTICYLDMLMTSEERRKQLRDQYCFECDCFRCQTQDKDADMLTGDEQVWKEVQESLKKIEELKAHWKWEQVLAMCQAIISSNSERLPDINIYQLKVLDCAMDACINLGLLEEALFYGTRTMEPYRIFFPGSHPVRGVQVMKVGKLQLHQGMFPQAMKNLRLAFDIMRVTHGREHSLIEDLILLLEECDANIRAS
Procedure: The selectivity profile of eltrombopag was investigated by testing the level of inhibition in a methyltransferase panel. The inhibition of 7 […] methyltransferase was tested at Reaction Biology (Malvern, PA, USA) using a gold standard radioisotope-based MT assay (MT HotSpot^TM) with 10 μM of eltrombopag in duplicate.

METTL3-14 complex [1] = biological target: T2, METTL3-14 complex (Homo sapiens, UniProt Q86U44); experiment: Mass spectrometry based METTL3-14 enzyme based assay (m^6A level of single strand RNA substrate); format: biochemical; conditions: read-out: IC50, METTL3-14 inhibition, mass spectrometric enzyme based assay
T2 construct: genes encoding the full-length and MTase domain of human METTL3; METTL3-14 FL: full length of METTL3-14; 10x His (thrombin-cleavable) (cleaved yes); made in house; host or cells: Trichoplusia ni (Hi5) cells co-infected with two baculoviruses (virus made in Sf9)
T2 sequence (Q86U44 whole entry, the tested form may be a part): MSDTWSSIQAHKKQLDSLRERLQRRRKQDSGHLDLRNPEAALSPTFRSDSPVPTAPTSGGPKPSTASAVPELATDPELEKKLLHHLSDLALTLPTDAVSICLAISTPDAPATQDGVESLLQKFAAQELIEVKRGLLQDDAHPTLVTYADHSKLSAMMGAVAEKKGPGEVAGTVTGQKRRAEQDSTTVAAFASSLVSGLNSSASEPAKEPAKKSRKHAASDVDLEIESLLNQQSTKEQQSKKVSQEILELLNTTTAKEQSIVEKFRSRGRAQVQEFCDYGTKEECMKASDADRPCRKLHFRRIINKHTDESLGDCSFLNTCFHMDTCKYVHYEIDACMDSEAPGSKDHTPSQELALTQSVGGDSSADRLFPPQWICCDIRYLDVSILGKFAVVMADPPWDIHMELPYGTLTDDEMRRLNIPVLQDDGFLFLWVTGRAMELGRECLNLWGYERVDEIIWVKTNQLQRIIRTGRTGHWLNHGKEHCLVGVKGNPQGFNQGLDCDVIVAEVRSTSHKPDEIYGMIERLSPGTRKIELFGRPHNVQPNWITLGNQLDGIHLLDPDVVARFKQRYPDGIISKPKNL
T2 sequence (Q9HCE5 whole entry partner, the tested form may be a part): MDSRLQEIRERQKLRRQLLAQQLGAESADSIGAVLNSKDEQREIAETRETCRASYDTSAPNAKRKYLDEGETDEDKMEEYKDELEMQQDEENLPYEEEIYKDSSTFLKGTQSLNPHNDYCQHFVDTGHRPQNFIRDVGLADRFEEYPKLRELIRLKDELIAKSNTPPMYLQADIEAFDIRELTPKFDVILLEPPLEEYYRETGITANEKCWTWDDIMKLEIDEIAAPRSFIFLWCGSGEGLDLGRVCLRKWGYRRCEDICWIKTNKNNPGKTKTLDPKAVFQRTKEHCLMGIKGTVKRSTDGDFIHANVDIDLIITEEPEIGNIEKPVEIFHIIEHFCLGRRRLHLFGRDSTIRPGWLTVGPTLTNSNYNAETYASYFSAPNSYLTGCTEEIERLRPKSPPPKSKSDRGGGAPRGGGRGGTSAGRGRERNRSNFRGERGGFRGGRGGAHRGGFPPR
Procedure: The 30 nM of METTL3-14 was incubated with 300 nM of SAM, 300 nM of RNA substrates, and serially diluted compounds at 23 °C for 1 h as described above. The enzymatic reaction was stopped by heating at 80 °C for 10 min and centrifuged at 15,000× g for 10 min. Then, the reacted RNA in the supernatant was digested to nucleosides by using 2 units of nuclease P1 (NEB, Ipswich, MA, USA) and dephosphorylated by using 1 unit of alkaline phosphatase (NEB) at 37 °C for 2 h.
The produced nucleosides were detected by reversed-phase high-performance liquid chromatography on an ACQUITY BEH C18 column ([…], 2.1 mm × 50 mm; Waters) coupled with mass spectrometry detection using an EVOQ Elite ER LC-TQ (Bruker, Billerica, MA, USA). The adenosine and m^6A were quantified using an MRM transition as follows: m/z = 267.9 -> 136.1 and m/z = 282.1 -> 150.1, respectively. (Retention time 5 min). The m^6A/A nucleoside ratio of the eltrombopag-treated sample was normalized to the corresponding value of the DMSO treated negative control. The IC50 values were calculated by a nonlinear regression analysis using OriginPro 9.1 software (OriginLab).

[2] = test system: m^6A/A on poly-A+-enriched mRNA of MOLM-13 cells; experiment: Quantitative analysis of m^6A level on poly-A+-enriched mRNA by mass spectrometry; format: cell-based; conditions: Homo sapiens
Procedure: The MOLM-13 cells were seeded in 10 cm^2 dishes at a density of 1.5 × 10^6 cells/mL with 10 mL of complete medium. After 24 h, the plated cells were treated with the vehicle (DMSO) or serial dilutions of eltrombopag and incubated for 24 h. Following incubation in the cell culture incubator, total RNA was extracted using TRIsure^TM (Bioline, Brisbane, Australia) according to the manufacturer’s instructions. Then, poly-A^+-enriched mRNA was purified from the extracted total RNA using the Magnosphere^TM ultrapure mRNA purification kit (Takara, Shiga, Japan). One microgram of mRNA was digested to the nucleosides using 2 units of nuclease P1 (NEB) and dephosphorylated using 1 unit of alkaline phosphatase (NEB) at 37 °C for 2 h.
The produced nucleosides were detected by reversed-phase high-performance liquid chromatography on an ACQUITY BEH C18 column (1.7 μm, 2.1 mm × 50 mm; Waters) coupled with mass spectrometry detection using an EVOQ Elite ER LC-TQ (Bruker). The adenosine and m^6A were quantified using MRM transition as follows: m/z = 267.9 -> 136.1 and m/z = 282.1 -> 150.1, respectively. (Retention time 5 min). The m^6A/A nucleoside ratio of the eltrombopag-treated sample was normalized to the corresponding value of the DMSO treated negative control. The inhibition curves were plotted using OriginPro 9.1 software (OriginLab) and fitted using nonlinear regression analysis.

METTL3-14 complex [3] = biological target: T2, METTL3-14 complex; experiment: METTL3-14 enzyme-based bioluminescence assay (screening assay); format: biochemical; conditions: IC50 not affected by SAM 50-1600 nM or RNA 25-800 nM
Procedure: An enzymatic bioluminescence assay was established to identify the METTL3-14 inhibitor through screening. […] METTL3-14 activity was assessed by measuring the luminescence using a Victor multilabel reader (PerkinElmer, Waltham, MA, USA). The IC50 values were calculated by a nonlinear regression analysis using OriginPro 9.1 software (OriginLab).
To confirm the mechanism of action of eltrombopag in the METTL3-14 complex, 30 nM METTL3-14 and serially diluted eltrombopag were reacted with various concentrations of SAM or RNA substrate and saturating concentrations of the other substrate (3 μM SAM or 2 μM RNA substrate) for 20 min. To evaluate the inhibitory activity in a single form of METTL3 and METTL14, 1 μM of METTL3 and 300 nM of METTL14 were incubated with 1 μM of SAM, 500 nM of RNA substrates, and serially diluted eltrombopag for 5 h. To measure the inhibitory activity in the truncated form of the METTL3-14 complex, 1 μM of the truncated METTL3-14 complex was reacted with 1 μM of SAM, 500 nM of RNA substrates, and serially diluted eltrombopag for 5 h.

CC1=NN(c2ccc(C)c(C)c2)C(=O)/C1=N\Nc1cccc(-c2cccc(C(=O)O)c2)c1O [Eltrombopag]
GI50 (MOLM-13 cells): 8.28 µM | remaining activity at 10 µM (SMYD3): 98.7 ± 5.7% | IC50 (METTL3-14 complex [1]): 4.55 µM | inhibition at 40 µM ([2]; MOLM-13, 40 μM, 24 h, read-out: maximum m^6A inhibition): 50% | IC50 ([2]; MOLM-13, 24 h treatment, read-out: IC50 of m^6A/A reduction on poly-A+-enriched mRNA): 17.3 ± 3.5 µM | mode of enzyme inhibition (METTL3-14 complex [3]): noncompetitive inhibitor
